Measurements reported in US20260265329A1, “POLYPEPTIDE AND DERIVATIVE THEREOF, COMPOSITION, AND USE THEREOF” (HANGZHOU SCIWIND BIOSCIENCES CO., LTD., priority 2023, published 2026).
Values belong to the molecule of their own block, whether it stands above or below them. Starred links: 1 amine or outer side, 2 acyl side, 3 side chain; linkers in the order of their positions; H or OH if unused. Non-standard residues stand in square brackets, D forms with d. Residues, ends and D or L forms follow the SMILES beside them. *: point of attachment. C20 diacid = O=C(O)CCCCCCCCCCCCCCCCCCC(=O)*; C18 diacid = O=C(O)CCCCCCCCCCCCCCCCC(=O)*; C16 diacid = O=C(O)CCCCCCCCCCCCCCC(=O)*; γGlu = O=C(O)[C@H](CCC(=O)[*:2])N[*:1]; Hyp = O=C(O)[C@@H]1C[C@@H](O)CN1; NMeD = CN[C@@H](CC(=O)O)C(=O)O; NMeN = CN[C@@H](CC(N)=O)C(=O)O

Columns and labels:
[1] = Heat accelerated stability assay, 40° C., detection on 10 d and 20 d; assay type: physicochemical; settings: 1 mg/mL, pH about 7.4, 40° C.
Experimental: The derivatives (1 mg/mL) were mixed with sodium dihydrogen phosphate (1.42 mg/mL) and dissolved in ultrapure water. After adjusting pH to about 7.4 with hydrochloric acid/sodium hydroxide, the solution was filtered into a sterilized vial in a clean bench using a 0.22 μm sterile filter. The vial was then capped and placed into the stability test chamber at 40° C. Detections were made on 10d and 20d, and during the assay changes in the characteristics and properties of the polypeptides were observed and recorded. The sample was then centrifuged for 3 min at 10000 rpm at 4° C., and the supernatant was transferred to a liquid phase sample vial for detecting the concentration and purity of the polypeptides using liquid phase chromatography described as below.
Flow rate: 1.0 mL/min; Autosampler temperature: 25° C.; Column temperature: 25° C.; Detection wavelength: 214 nm; Mobile phase A: 110 mM phosphate buffer (pH 5.8): ACN=90:10; Mobile phase B: ACN: IPA: H2O=85:5:10; and Gradient of elution listed in Table 6: […]

human amylin receptors = biological target: T1, human amylin receptors (Homo sapiens, UniProt O60896+P30988); assay: Luciferase assay in stably transfected amylin receptor/CRE-luc CHO cell line; assay type: cell-based; settings: for Relative activity: EC50 ratio of Cagrilintide to the compound, Cagrilintide 100%; for EC50: amylin receptor/CRE-luc CHO cells, 24 hours incubation, luminescence
T1 construct: host or cells: CHO-K1/Ga15/AMY3 cells, further stably transfected with a CRE-luciferase plasmid
T1 sequence (P30988 25-474): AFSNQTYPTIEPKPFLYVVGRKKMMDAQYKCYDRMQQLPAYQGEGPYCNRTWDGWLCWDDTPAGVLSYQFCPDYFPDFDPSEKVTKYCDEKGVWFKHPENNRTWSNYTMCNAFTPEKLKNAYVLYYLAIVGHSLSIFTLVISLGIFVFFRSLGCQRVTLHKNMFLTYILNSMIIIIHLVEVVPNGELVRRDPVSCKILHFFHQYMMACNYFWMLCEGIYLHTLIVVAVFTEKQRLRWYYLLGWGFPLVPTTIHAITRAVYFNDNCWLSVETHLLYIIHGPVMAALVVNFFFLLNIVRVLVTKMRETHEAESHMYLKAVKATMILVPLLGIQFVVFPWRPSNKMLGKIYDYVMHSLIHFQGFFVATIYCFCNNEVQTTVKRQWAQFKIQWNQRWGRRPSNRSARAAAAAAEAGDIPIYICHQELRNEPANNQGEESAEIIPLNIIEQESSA
T1 sequence (O60896 24-148 partner): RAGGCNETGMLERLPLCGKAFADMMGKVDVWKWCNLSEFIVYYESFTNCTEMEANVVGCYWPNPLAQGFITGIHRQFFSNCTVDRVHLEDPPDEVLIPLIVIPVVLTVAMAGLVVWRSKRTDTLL

[2] = biological target: T2, human amylin receptor on CHO-K1/Ga15/AMY3 cells (amylin receptor/CRE-luc cell line) (human) (UniProt P30988); assay: cell-based or functional assay
T2 sequence (looked up) 1: T1 sequence (P30988 25-474)
T2 sequence (looked up) 2: T1 sequence (O60896 24-148 partner)

- Reduction in purity, 10 d [1]: 4.8%
- Relative activity (human amylin receptors): 32%
- EC50 (human amylin receptors): 0.28 nM
Molecule: CC[C@H](C)[C@H](NC(=O)[C@@H]1CCCN1C(=O)[C@H](CCCCN)NC(=O)[C@H](CC(C)C)NC(=O)[C@H](CCC(=O)O)NC(=O)[C@H](CCC(=O)O)NC(=O)[C@H](CO)NC(=O)[C@H](CO)NC(=O)[C@H](Cc1c[nH]cn1)NC(=O)[C@H](CCCNC(=N)N)NC(=O)[C@H](CC(C)C)NC(=O)[C@H](Cc1ccccc1)NC(=O)[C@H](CC(=O)O)NC(=O)[C@H](C)NC(=O)[C@H](CC(C)C)NC(=O)[C@H](CCCNC(=N)N)NC(=O)[C@H](CCC(N)=O)NC(=O)[C@@H](NC(=O)[C@H](C)NC(=O)[C@H](C)NC(=O)[C@@H](NC(=O)[C@H](CO)NC(=O)[C@H](CC(C)C)NC(=O)[C@H](CCC(N)=O)NC(=O)[C@H](CO)NC(=O)[C@H](C)NC(=O)CC[C@H](NC(=O)CCCCCCCCCCCCCCCCCCC(=O)O)C(=O)O)[C@@H](C)O)[C@@H](C)O)C(=O)N[C@@H](CC(C)C)C(=O)N1CCC[C@H]1C(=O)N1CCC[C@H]1C(=O)N[C@H](C(=O)N[C@@H](CC(N)=O)C(=O)N[C@H](C(=O)NCC(=O)N[C@@H](CO)C(=O)N[C@@H](CC(N)=O)C(=O)N[C@H](C(=O)N1C[C@H](O)C[C@H]1C(N)=O)[C@@H](C)O)C(C)C)[C@@H](C)O [M42] ({C20 diacid-γGlu}-ASQLSTAATQRLADFLRHSSEELKPILPPTNVGSNT[Hyp]-NH2)

- Reduction in purity, 10 d [1]: 21.09%
- Reduction in purity, 20 d ([1]; 20 d): 37.35%
- Relative activity (human amylin receptors): 130%
- EC50 (human amylin receptors): 0.1 nM
Molecule: CC[C@H](C)[C@H](NC(=O)[C@@H]1CCCN1C(=O)[C@H](CCCCN)NC(=O)[C@H](CC(C)C)NC(=O)[C@H](CC(N)=O)N(C)C(=O)[C@H](CC(N)=O)NC(=O)[C@H](CO)NC(=O)[C@H](CO)NC(=O)[C@H](Cc1c[nH]cn1)NC(=O)[C@H](CCCNC(=N)N)NC(=O)[C@H](CC(C)C)NC(=O)[C@H](Cc1ccccc1)NC(=O)[C@H](CC(=O)O)NC(=O)[C@H](C)NC(=O)[C@H](CC(C)C)NC(=O)[C@H](CCCNC(=N)N)NC(=O)[C@H](CCC(N)=O)NC(=O)[C@@H](NC(=O)[C@H](C)NC(=O)[C@H](C)NC(=O)[C@@H](NC(=O)[C@H](CO)NC(=O)[C@H](CC(C)C)NC(=O)[C@H](CCC(N)=O)NC(=O)[C@H](CO)NC(=O)[C@H](C)NC(=O)CC[C@H](NC(=O)CCCCCCCCCCCCCCCCCCC(=O)O)C(=O)O)[C@@H](C)O)[C@@H](C)O)C(=O)N[C@@H](CC(C)C)C(=O)N1CCC[C@H]1C(=O)N1CCC[C@H]1C(=O)N[C@H](C(=O)N[C@@H](CC(N)=O)C(=O)N[C@H](C(=O)NCC(=O)N[C@@H](CO)C(=O)N[C@@H](CC(N)=O)C(=O)N[C@H](C(=O)N1C[C@H](O)C[C@H]1C(N)=O)[C@@H](C)O)C(C)C)[C@@H](C)O [M44] ({C20 diacid-γGlu}-ASQLSTAATQRLADFLRHSSN[NMeN]LKPILPPTNVGSNT[Hyp]-NH2)

- Reduction in purity, 10 d [1]: 6.54%
- Relative activity (human amylin receptors): 129%
- EC50 (human amylin receptors): 0.07 nM
Molecule: CC[C@H](C)[C@H](NC(=O)[C@@H]1CCCN1C(=O)[C@H](CCCCN)NC(=O)[C@H](CC(C)C)NC(=O)[C@H](CC(=O)O)N(C)C(=O)[C@H](CC(N)=O)NC(=O)[C@H](CO)NC(=O)[C@H](CO)NC(=O)[C@H](Cc1c[nH]cn1)NC(=O)[C@H](CCCNC(=N)N)NC(=O)[C@H](CC(C)C)NC(=O)[C@H](Cc1ccccc1)NC(=O)[C@H](CC(=O)O)NC(=O)[C@H](C)NC(=O)[C@H](CC(C)C)NC(=O)[C@H](CCCNC(=N)N)NC(=O)[C@H](CCC(N)=O)NC(=O)[C@@H](NC(=O)[C@H](C)NC(=O)[C@H](C)NC(=O)[C@@H](NC(=O)[C@H](CO)NC(=O)[C@H](CC(C)C)NC(=O)[C@H](CCC(N)=O)NC(=O)[C@H](CO)NC(=O)[C@H](C)NC(=O)CC[C@H](NC(=O)CCCCCCCCCCCCCCCCCCC(=O)O)C(=O)O)[C@@H](C)O)[C@@H](C)O)C(=O)N[C@@H](CC(C)C)C(=O)N1CCC[C@H]1C(=O)N1CCC[C@H]1C(=O)N[C@H](C(=O)N[C@@H](CC(N)=O)C(=O)N[C@H](C(=O)NCC(=O)N[C@@H](CO)C(=O)N[C@@H](CC(N)=O)C(=O)N[C@H](C(=O)N1C[C@H](O)C[C@H]1C(N)=O)[C@@H](C)O)C(C)C)[C@@H](C)O [M45] ({C20 diacid-γGlu}-ASQLSTAATQRLADFLRHSSN[NMeD]LKPILPPTNVGSNT[Hyp]-NH2)

- Reduction in purity, 10 d [1]: 8.69%
- Relative activity (human amylin receptors): 150%
- EC50 (human amylin receptors): 0.06 nM
Molecule: CC[C@H](C)[C@H](NC(=O)[C@@H]1CCCN1C(=O)[C@H](CCCCN)NC(=O)[C@H](CC(C)C)NC(=O)[C@H](CC(N)=O)NC(=O)[C@H](CCC(N)=O)NC(=O)[C@H](CO)NC(=O)[C@H](CO)NC(=O)[C@H](Cc1c[nH]cn1)NC(=O)[C@H](CCCNC(=N)N)NC(=O)[C@H](CC(C)C)NC(=O)[C@H](Cc1ccccc1)NC(=O)[C@H](CC(=O)O)NC(=O)[C@H](C)NC(=O)[C@H](CC(C)C)NC(=O)[C@H](CCCNC(=N)N)NC(=O)[C@H](CCC(N)=O)NC(=O)[C@@H](NC(=O)[C@H](C)NC(=O)[C@H](C)NC(=O)[C@@H](NC(=O)[C@H](CO)NC(=O)[C@H](CC(C)C)NC(=O)[C@H](CCC(N)=O)NC(=O)[C@H](CO)NC(=O)[C@H](C)NC(=O)CC[C@H](NC(=O)CCCCCCCCCCCCCCCCCCC(=O)O)C(=O)O)[C@@H](C)O)[C@@H](C)O)C(=O)N[C@@H](CC(C)C)C(=O)N1CCC[C@H]1C(=O)N1CCC[C@H]1C(=O)N[C@H](C(=O)N[C@@H](CC(N)=O)C(=O)N[C@H](C(=O)NCC(=O)N[C@@H](CO)C(=O)N[C@@H](CC(N)=O)C(=O)N[C@H](C(=O)N1C[C@H](O)C[C@H]1C(N)=O)[C@@H](C)O)C(C)C)[C@@H](C)O [M46] ({C20 diacid-γGlu}-ASQLSTAATQRLADFLRHSSQNLKPILPPTNVGSNT[Hyp]-NH2)

- EC50 (luciferase assay, amylin receptor/CRE-luc CHO cells) [2]: 0.03 nM
- Relative activity (the EC50 ratio of Cagrilintide to the compound) [2]: 184%
B1: M37 (peptide)
peptide: {C18 diacid-γGlu}-ASQLSTAATQRLADFLRHSSNNLKPILPPTNVGSNT[Hyp]-NH2
SMILES: CC[C@H](C)[C@H](NC(=O)[C@@H]1CCCN1C(=O)[C@H](CCCCN)NC(=O)[C@H](CC(C)C)NC(=O)[C@H](CC(N)=O)NC(=O)[C@H](CC(N)=O)NC(=O)[C@H](CO)NC(=O)[C@H](CO)NC(=O)[C@H](Cc1c[nH]cn1)NC(=O)[C@H](CCCNC(=N)N)NC(=O)[C@H](CC(C)C)NC(=O)[C@H](Cc1ccccc1)NC(=O)[C@H](CC(=O)O)NC(=O)[C@H](C)NC(=O)[C@H](CC(C)C)NC(=O)[C@H](CCCNC(=N)N)NC(=O)[C@H](CCC(N)=O)NC(=O)[C@@H](NC(=O)[C@H](C)NC(=O)[C@H](C)NC(=O)[C@@H](NC(=O)[C@H](CO)NC(=O)[C@H](CC(C)C)NC(=O)[C@H](CCC(N)=O)NC(=O)[C@H](CO)NC(=O)[C@H](C)NC(=O)CC[C@H](NC(=O)CCCCCCCCCCCCCCCCC(=O)O)C(=O)O)[C@@H](C)O)[C@@H](C)O)C(=O)N[C@@H](CC(C)C)C(=O)N1CCC[C@H]1C(=O)N1CCC[C@H]1C(=O)N[C@H](C(=O)N[C@@H](CC(N)=O)C(=O)N[C@H](C(=O)NCC(=O)N[C@@H](CO)C(=O)N[C@@H](CC(N)=O)C(=O)N[C@H](C(=O)N1C[C@H](O)C[C@H]1C(N)=O)[C@@H](C)O)C(C)C)[C@@H](C)O

- EC50 (luciferase assay, amylin receptor/CRE-luc CHO cells) [2]: 0.03 nM
- Relative activity (the EC50 ratio of Cagrilintide to the compound) [2]: 181%
B2: M38 (peptide)
peptide: {C16 diacid-γGlu}-ASQLSTAATQRLADFLRHSSNNLKPILPPTNVGSNT[Hyp]-NH2
SMILES: CC[C@H](C)[C@H](NC(=O)[C@@H]1CCCN1C(=O)[C@H](CCCCN)NC(=O)[C@H](CC(C)C)NC(=O)[C@H](CC(N)=O)NC(=O)[C@H](CC(N)=O)NC(=O)[C@H](CO)NC(=O)[C@H](CO)NC(=O)[C@H](Cc1c[nH]cn1)NC(=O)[C@H](CCCNC(=N)N)NC(=O)[C@H](CC(C)C)NC(=O)[C@H](Cc1ccccc1)NC(=O)[C@H](CC(=O)O)NC(=O)[C@H](C)NC(=O)[C@H](CC(C)C)NC(=O)[C@H](CCCNC(=N)N)NC(=O)[C@H](CCC(N)=O)NC(=O)[C@@H](NC(=O)[C@H](C)NC(=O)[C@H](C)NC(=O)[C@@H](NC(=O)[C@H](CO)NC(=O)[C@H](CC(C)C)NC(=O)[C@H](CCC(N)=O)NC(=O)[C@H](CO)NC(=O)[C@H](C)NC(=O)CC[C@H](NC(=O)CCCCCCCCCCCCCCC(=O)O)C(=O)O)[C@@H](C)O)[C@@H](C)O)C(=O)N[C@@H](CC(C)C)C(=O)N1CCC[C@H]1C(=O)N1CCC[C@H]1C(=O)N[C@H](C(=O)N[C@@H](CC(N)=O)C(=O)N[C@H](C(=O)NCC(=O)N[C@@H](CO)C(=O)N[C@@H](CC(N)=O)C(=O)N[C@H](C(=O)N1C[C@H](O)C[C@H]1C(N)=O)[C@@H](C)O)C(C)C)[C@@H](C)O
